Data on 18 compounds can be found in patent US12509453B2, “BRM/BRG1 inhibitors and uses thereof” (Foghorn Therapeutics Inc., priority 2019, dated 2025).

Experiment [1] addresses T1, BRM (Homo sapiens, UniProt P51531).
T1 construct: made in house; host or cells: High Five insect cells
Kind of experiment: ATPase catalytic activity assay (ADP-Glo), BRM. It is filed as biochemical. As to conditions: 30 nM BRM, 400 μM ATP; for IC50: 20 nM salmon sperm DNA, read-out: BRM IP50 (μM)*. As to the method:
(§1) The ATPase catalytic activity of BRM or BRG-1 was measured by the in vitro biochemical assay using ADP-Glo™ (Promega, V9102). The ADP-Glo™ kinase assay is performed in two steps once the reaction is complete. The first step is to deplete any unconsumed ATP in the reaction. The second step is to convert the reaction product ADP to ATP, which will be utilized by the luciferase to generate luminesce and be detected by a luminescence reader, such as Envision.
(§2) The assay reaction mixture (10 μL) contains 30 nM of BRM or BRG-1, 20 nM salmon sperm DNA (from Invitrogen, UltraPure™ Salmon Sperm DNA Solution, cat #15632011), and 400 μM of ATP in the ATPase assay buffer, which comprises of 20 mM Tris, pH 8, 20 mM MgCl2, 50 mM NaCl, 0.1% Tween-20, and 1 mM fresh DTT (Pierce™ DTT (Dithiothreitol), cat #20290). The reaction is initiated by the addition of the 2.5 μL ATPase solution to 2.5 μL ATP/DNA solution on low volume white Proxiplate-384 plus plate (PerkinElmer,cat #6008280) and incubates at room temperature for 1 hour. Then following addition of 5 μL of ADP-Glo™ Reagent provided in the kit, the reaction incubates at room temperature for 40 minutes. Then 10 μL of Kinase Detection Reagent provided in the kit is added to convert ADP to ATP, and the reaction incubates at room temperature for 60 minutes. Finally, luminescence measurement is collected with a plate-reading luminometer, such as Envision.
(§3) The ADP-Glo™ kinase assay is performed in two steps once the reaction is complete. The first step is to deplete any unconsumed ATP in the reaction. The second step is to convert the reaction product ADP to ATP, which will be utilized by the luciferase to generate luminesce and be detected by a luminescence reader, such as Envision.
as §2, with “BRG1,” for “BRG-1,”

In experiment [2] the target is T2, BRG-1 (Homo sapiens, UniProt P51532).
T2 construct: made in house; host or cells: High Five insect cells
T2 sequence (P51532 whole entry): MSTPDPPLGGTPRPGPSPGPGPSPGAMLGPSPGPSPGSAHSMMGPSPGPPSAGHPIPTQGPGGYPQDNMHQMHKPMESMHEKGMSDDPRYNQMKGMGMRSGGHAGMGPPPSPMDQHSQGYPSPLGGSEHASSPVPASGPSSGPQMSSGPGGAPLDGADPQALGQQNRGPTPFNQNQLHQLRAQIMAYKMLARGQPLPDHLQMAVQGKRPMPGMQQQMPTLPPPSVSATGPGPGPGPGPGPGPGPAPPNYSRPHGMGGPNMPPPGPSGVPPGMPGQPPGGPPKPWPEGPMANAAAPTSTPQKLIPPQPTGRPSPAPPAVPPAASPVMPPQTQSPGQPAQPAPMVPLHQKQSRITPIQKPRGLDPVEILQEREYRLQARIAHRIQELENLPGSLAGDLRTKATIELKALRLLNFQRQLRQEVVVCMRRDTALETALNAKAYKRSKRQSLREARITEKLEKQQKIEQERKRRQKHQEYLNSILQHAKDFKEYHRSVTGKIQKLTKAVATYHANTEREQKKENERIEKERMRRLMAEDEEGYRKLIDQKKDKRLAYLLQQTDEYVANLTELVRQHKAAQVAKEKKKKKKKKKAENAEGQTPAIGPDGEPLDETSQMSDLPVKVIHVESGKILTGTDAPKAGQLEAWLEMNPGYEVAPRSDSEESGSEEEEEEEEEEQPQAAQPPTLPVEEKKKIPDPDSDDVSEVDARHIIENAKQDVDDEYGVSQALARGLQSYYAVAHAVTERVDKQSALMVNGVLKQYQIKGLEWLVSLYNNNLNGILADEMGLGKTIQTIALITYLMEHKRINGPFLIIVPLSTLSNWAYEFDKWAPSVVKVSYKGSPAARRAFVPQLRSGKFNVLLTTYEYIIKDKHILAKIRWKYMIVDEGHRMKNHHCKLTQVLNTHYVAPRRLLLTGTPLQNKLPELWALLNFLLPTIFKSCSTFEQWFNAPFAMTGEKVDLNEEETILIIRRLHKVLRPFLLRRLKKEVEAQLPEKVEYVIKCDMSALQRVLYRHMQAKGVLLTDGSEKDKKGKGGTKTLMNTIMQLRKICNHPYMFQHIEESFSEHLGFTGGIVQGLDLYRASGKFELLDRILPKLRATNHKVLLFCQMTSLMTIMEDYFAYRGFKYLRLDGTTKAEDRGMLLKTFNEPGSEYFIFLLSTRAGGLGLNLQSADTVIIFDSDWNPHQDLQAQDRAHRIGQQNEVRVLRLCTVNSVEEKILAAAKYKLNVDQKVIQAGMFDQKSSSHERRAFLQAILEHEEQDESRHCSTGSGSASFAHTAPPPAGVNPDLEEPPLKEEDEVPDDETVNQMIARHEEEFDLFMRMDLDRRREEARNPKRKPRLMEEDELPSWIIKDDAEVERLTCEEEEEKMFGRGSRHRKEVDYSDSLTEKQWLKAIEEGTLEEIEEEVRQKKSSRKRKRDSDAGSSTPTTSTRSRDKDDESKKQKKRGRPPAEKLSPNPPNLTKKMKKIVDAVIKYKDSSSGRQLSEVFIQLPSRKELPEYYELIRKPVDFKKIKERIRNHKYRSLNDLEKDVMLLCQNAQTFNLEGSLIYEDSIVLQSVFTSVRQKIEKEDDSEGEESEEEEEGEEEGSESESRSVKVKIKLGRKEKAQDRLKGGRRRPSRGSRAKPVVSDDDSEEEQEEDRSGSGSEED
As to the kind of experiment: ATPase catalytic activity assay (ADP-Glo), BRG-1. It is filed as biochemical. As to conditions: 30 nM BRG-1, 400 μM ATP; for IC50: 20 nM salmon sperm DNA, read-out: BRG1 IP50 (μM)*; for Emax: read-out: BRG1 Max % Inhibition. As to the method: as §1, §2, §3
as §2, with “BRG1,” for “BRG-1,”

Each structure is given as a SMILES string. Where only a bound is given, the exact number is not on record here.

T1 sequence (P51531 whole entry): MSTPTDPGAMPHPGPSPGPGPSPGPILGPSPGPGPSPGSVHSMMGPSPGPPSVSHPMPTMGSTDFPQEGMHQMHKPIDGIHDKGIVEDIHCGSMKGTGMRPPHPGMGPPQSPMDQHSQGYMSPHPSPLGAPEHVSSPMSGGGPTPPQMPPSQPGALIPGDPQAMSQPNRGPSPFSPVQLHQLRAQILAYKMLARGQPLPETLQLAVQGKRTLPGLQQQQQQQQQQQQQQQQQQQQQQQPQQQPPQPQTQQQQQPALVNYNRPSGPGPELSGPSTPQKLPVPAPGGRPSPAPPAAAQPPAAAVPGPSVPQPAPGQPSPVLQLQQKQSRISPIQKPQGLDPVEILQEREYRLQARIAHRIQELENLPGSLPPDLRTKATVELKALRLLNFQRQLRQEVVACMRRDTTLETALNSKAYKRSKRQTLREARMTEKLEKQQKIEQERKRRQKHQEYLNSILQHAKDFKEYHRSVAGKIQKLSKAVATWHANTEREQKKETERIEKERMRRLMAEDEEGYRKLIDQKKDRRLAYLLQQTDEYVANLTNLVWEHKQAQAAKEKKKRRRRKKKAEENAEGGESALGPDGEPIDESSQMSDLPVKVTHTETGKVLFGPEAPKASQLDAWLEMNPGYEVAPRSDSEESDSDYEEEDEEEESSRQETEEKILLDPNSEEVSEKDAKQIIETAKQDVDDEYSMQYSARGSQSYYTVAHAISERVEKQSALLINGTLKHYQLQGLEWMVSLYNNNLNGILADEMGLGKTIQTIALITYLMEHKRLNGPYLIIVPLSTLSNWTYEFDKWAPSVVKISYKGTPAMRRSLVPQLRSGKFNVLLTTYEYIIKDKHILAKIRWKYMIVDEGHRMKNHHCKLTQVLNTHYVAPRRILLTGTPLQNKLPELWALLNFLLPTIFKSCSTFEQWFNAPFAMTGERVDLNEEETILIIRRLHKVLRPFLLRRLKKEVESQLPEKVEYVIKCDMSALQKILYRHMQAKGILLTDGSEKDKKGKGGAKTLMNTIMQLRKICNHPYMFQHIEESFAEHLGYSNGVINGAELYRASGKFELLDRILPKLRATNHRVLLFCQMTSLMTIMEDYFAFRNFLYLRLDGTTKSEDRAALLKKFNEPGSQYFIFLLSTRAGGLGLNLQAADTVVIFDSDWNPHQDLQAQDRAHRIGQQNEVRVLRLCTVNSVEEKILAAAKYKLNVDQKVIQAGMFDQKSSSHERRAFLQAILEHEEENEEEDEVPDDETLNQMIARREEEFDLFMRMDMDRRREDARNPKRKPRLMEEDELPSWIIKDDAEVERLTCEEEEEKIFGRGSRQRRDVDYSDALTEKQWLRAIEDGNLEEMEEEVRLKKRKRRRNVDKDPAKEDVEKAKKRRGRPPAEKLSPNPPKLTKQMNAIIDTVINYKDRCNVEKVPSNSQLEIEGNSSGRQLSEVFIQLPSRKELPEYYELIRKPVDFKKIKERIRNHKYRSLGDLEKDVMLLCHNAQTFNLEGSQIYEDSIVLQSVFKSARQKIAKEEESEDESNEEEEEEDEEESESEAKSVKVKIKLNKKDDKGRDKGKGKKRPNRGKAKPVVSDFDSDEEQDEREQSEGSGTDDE

`CS(=O)(=O)n1cc(C(=O)NCC(=O)Nc2nc(-c3cccc(-c4ccncc4)c3)cs2)c2ccccc21` [Compound 1, 1-(methylsulfonyl)-N-(2-oxo-2-((4-(3-(pyridin-4-yl)phenyl)thiazol-2-yl)amino)ethyl)-1H-indole-3-carboxamide]: in experiment [1], the “BRM Max % Inhibition” value is above 70% and the IC50 is 0.1 to 1 µM. Further, in experiment [2], the IC50 was above 5 µM and the Emax is below 30%.
In the same order, the values of `CS(=O)(=O)n1cc(C(=O)NCC(=O)Nc2nc(-c3cccc(-c4ccncc4)c3)cs2)c2ccncc21` [Compound 2, 1-(methylsulfonyl)-N-(2-oxo-2-((4-(3-(pyridin-4-yl)phenyl)thiazol-2-yl)amino)ethyl)-1H-pyrrolo[2,3-c]pyridine-3-carboxamide] are above 80%, 0.1 to 1 µM, 1 to 5 µM and above 70%.
Regarding `CS(=O)(=O)n1cc(C(=O)NCC(=O)Nc2nc(-c3cccc(-c4ccncc4)c3)cs2)c2ncccc21` [Compound 3, 1-(methylsulfonyl)-N-(2-oxo-2-((4-(3-(pyridin-4-yl)phenyl)thiazol-2-yl)amino)ethyl)-1H-pyrrolo[3,2-b]pyridine-3-carboxamide], in experiment [1], the “BRM Max % Inhibition” value is above 40% and the IC50 was above 5 µM. Besides, in experiment [2], the IC50 is above 5 µM and the Emax is above 40%.
Consider `CC(C)S(=O)(=O)n1cc(C(=O)NCC(=O)Nc2nc(-c3cccc(-c4ccncc4)c3)cs2)c2ccccc21` [Compound 4, 1-(isopropylsulfonyl)-N-(2-oxo-2-((4-(3-(pyridin-4-yl)phenyl)thiazol-2-yl)amino)ethyl)-1H-indole-3-carboxamide], for which, in experiment [1], the “BRM Max % Inhibition” value is given as above 60% and the IC50 lay in the range of 0.1 to 1 µM. The IC50 in experiment [2] was above 5 µM.
For the compound `CS(=O)(=O)n1cc(C(=O)NCC(=O)Nc2nc(-c3cccc(-c4ccncc4)c3)cs2)c2c1CCCC2` [Compound 5, 1-(methylsulfonyl)-N-(2-oxo-2-((4-(3-(pyridin-4-yl)phenyl)thiazol-2-yl)amino)ethyl)-4,5,6,7-tetrahydro-1 H-indole-3-carboxamide], in experiment [1], the “BRM Max % Inhibition” value is recorded as above 60% and the IC50 is below 0.1 µM. Moreover, in experiment [2], the IC50 was above 5 µM and the Emax was below 30%.
Regarding `Cc1cc(C(=O)NCC(=O)Nc2nc(-c3cccc(-c4ccn(C)n4)c3)cs2)cn1S(=O)(=O)C(C)C` [Compound 6, 1-(isopropylsulfonyl)-5-methyl-N-(2-((4-(3-(1-methyl-1H-pyrazol-3-yl)phenyl)thiazol-2-yl)amino)-2-oxoethyl)-1H-pyrrole-3-carboxamide], in experiment [1], the “BRM Max % Inhibition” value is above 90% and the IC50 lay within 0.1 to 1 µM. In experiment [2], the IC50 lay within 1 to 5 µM and the Emax was above 50%.
The corresponding values for `Cc1cc(-c2cccc(-c3csc(NC(=O)CNC(=O)c4cc(C)n(S(=O)(=O)C(C)C)c4)n3)c2)cc(C)n1` [Compound 7, N-(2-((4-(3-(2,6-dimethylpyridin-4-yl)phenyl)thiazol-2-yl)amino)-2-oxoethyl)-1-(isopropylsulfonyl)-5-methyl-1H-pyrrole-3-carboxamide] are above 95%, below 0.1 µM, 0.1 to 1 µM and above 95%.
The corresponding values for `Cc1cc(C(=O)NCC(=O)Nc2nc(-c3cccc(N4C[C@@H](C)O[C@@H](C)C4)c3)cs2)cn1S(=O)(=O)C(C)C` [Compound 8, N-(2-((4-(3-((2S,6R)-2,6-dimethylmorpholino)phenyl)thiazol-2-yl)amino)-2-oxoethyl)-1-(isopropylsulfonyl)-5-methyl-1H-pyrrole-3-carboxamide] are above 95%, 0.1 to 1 µM, 0.1 to 1 µM and above 70%.
The corresponding values for `Cc1cn(S(C)(=O)=O)cc1C(=O)NCC(=O)Nc1nc(-c2cccc(-c3ccncc3)c2)cs1` [Compound 9, 4-methyl-1-(methylsulfonyl)-N-(2-oxo-2-((4-(3-(pyridin-4-yl)phenyl)thiazol-2-yl)amino)ethyl)-1H-pyrrole-3-carboxamide] are above 80%, below 0.1 µM, below 0.1 µM and above 60%.
With `Cc1c(C(=O)NCC(=O)Nc2nc(-c3cccc(-c4ccncc4)c3)cs2)cn(S(=O)(=O)C(C)C)c1C` [Compound 10, 1-(isopropylsulfonyl)-4,5-dimethyl-N-(2-oxo-2-((4-(3-(pyridin-4-yl)phenyl)thiazol-2-yl)amino)ethyl)-1H-pyrrole-3-carboxamide], in experiment [1], the “BRM Max % Inhibition” value is on record as above 70% and the IC50 was 0.1 to 1 µM. Further, in experiment [2], the IC50 is above 5 µM and the Emax was below 30%.
As to `Cc1c(C(=O)NCC(=O)Nc2nc(-c3cccc(-c4ccncc4)c3)cs2)cn(S(C)(=O)=O)c1C` [Compound 11, 4,5-dimethyl-1-(methylsulfonyl)-N-(2-oxo-2-((4-(3-(pyridin-4-yl)phenyl)thiazol-2-yl)amino)ethyl)-1H-pyrrole-3-carboxamide], in experiment [1], the “BRM Max % Inhibition” value is above 95% and the IC50 is below 0.1 µM. In experiment [2], the IC50 was below 0.1 µM and the Emax was above 80%.
Regarding `Cc1cc(-c2cccc(-c3csc(NC(=O)CNC(=O)c4cn(S(=O)(=O)C(C)C)c(C)c4C)n3)c2)cc(C)n1` [Compound 12, N-(2-((4-(3-(2,6-dimethylpyridin-4-yl)phenyl)thiazol-2-yl)amino)-2-oxoethyl)-1-(isopropylsulfonyl)-4,5-dimethyl-1H-pyrrole-3-carboxamide], in experiment [1], the “BRM Max % Inhibition” value is above 95% and the IC50 was below 0.1 µM. Moreover, in experiment [2], the IC50 lay in the range of 0.1 to 1 µM and the Emax is above 80%.
In the same order, the values of `Cc1cc(-c2cccc(-c3csc(NC(=O)CNC(=O)c4cn(S(=O)(=O)C(C)C)c(C)c4C)n3)c2)ccn1` [Compound 13, 1-(isopropylsulfonyl)-4,5-dimethyl-N-(2-((4-(3-(2-methylpyridin-4-yl)phenyl)thiazol-2-yl)amino)-2-oxoethyl)-1H-pyrrole-3-carboxamide] are above 95%, 0.1 to 1 µM, 1 to 5 µM and above 80%.
The corresponding values for `Cc1cc(-c2cccc(-c3csc(NC(=O)CNC(=O)c4cn(S(=O)(=O)C(C)C)c(C)c4C)n3)c2)nc(C)n1` [Compound 14] are above 95%, below 0.1 µM, 0.1 to 1 µM and above 90%.
In the same order, the values of `Cc1c(C(=O)NCC(=O)Nc2nc(-c3cccc(N4C[C@@H](C)O[C@@H](C)C4)c3)cs2)cn(S(C)(=O)=O)c1C` [Compound 15] are above 95%, below 0.1 µM, 0.1 to 1 µM and above 90%.
`Cc1nccc(-c2cccc(-c3csc(NC(=O)CNC(=O)c4cc(C)n(S(=O)(=O)C(C)C)c4)n3)c2)n1` [Compound 16]: in experiment [1], the “BRM Max % Inhibition” value is above 95% and the IC50 is below 0.1 µM. In experiment [2], the IC50 was below 0.1 µM and the Emax is above 95%.
Regarding `Cc1nccc(-c2cccc(-c3csc(NC(=O)CNC(=O)c4cn(S(=O)(=O)C(C)C)c(C)c4C)n3)c2)n1` [Compound 17], in experiment [1], the “BRM Max % Inhibition” value is above 95% and the IC50 was below 0.1 µM. In experiment [2], the IC50 is 0.1 to 1 µM and the Emax was above 80%.
Take `Cc1nccc(-c2cccc(-c3csc(NC(=O)CNC(=O)c4cn(S(C)(=O)=O)c5c4CCCC5)n3)n2)n1` [Compound 18, N-(2-((4-(6-(2-methylpyrimidin-4-yl)pyridin-2-yl)thiazol-2-yl)amino)-2-oxoethyl)-1-(methylsulfonyl)-4,5,6,7-tetrahydro-1H-indole-3-carboxamide]: in experiment [1], the “BRM Max % Inhibition” value is on record as above 70% and the IC50 is 0.1 to 1 µM. Moreover, in experiment [2], the IC50 is above 5 µM and the Emax was below 30%.
